# Laboratory results taken from patent US20150328292A1, “CASPASE POLYPEPTIDES HAVING MODIFIED ACTIVITY AND USES THEREOF” (BELLICUM PHARMACEUTICALS, INC., priority 2014, published 2015).
# Several values for one entry are separate records, joined by “and”; a condition that tells them apart may be missing. Equal entries are not always repeated.
# B1: N405Qco: codon-optimized version of the modified caspase-9 polypeptide having the N405Q substitution, SEQ ID NO: 39/40 (protein)
# chain: VDGFGDVGALESLRGNADLAYILSMEPCGHCLIINNVNFCRESGLRTRTGSNIDCEKLRRRFSSLHFMVEVKGDLTAKKMVLALLELARQDHGALDCCVVVILSHGCQASHLQFPGAVYGTDGCPVSVEKIVNIFNGTSCPSLGGKPKLFFIQACGGEQKDHGFEVASTSPEDESPGSNPEPDATPFQEGLRTFDQLDAISSLPTPSDIFVSYSTFPGFVSWRDPKSGSWYVETLDDIFEQWAHSEDLQSLLLRVANAVSVKGIYKQMPGCFQFLRKKLFFKTSASRA
# How the values were obtained:
# [1] = system: gene-modified allodepleted cells; experiment: Induction of apoptosis with AP20187 in gene-modified allodepleted cells (annexin V/7-AAD); type: cell-based, human
# Protocol: Suicide gene functionality was assessed by adding a small molecule synthetic homodimerizer, AP20187 (Ariad Pharmaceuticals; Cambridge, Mass.), at 10 nM final concentration the day following CD19 immunomagnetic selection. Cells were stained with annexin V and 7-aminoactinomycin (7-AAD)(BD Pharmingen) at 24 hours and analyzed by flow cytometry. Cells negative for both annexin V and 7-AAD were considered viable, cells that were annexin V positive were apoptotic, and cells that were both annexin V and 7-AAD positive were necrotic. The percentage killing induced by dimerization was corrected for baseline viability as follows: Percentage killing=100%−(% Viability in AP20187-treated cells÷ % Viability in non-treated cells).
# Cells were maintained in T cell medium containing 50 U/ml IL-2 until 22 days after transduction. A portion of cells was reactivated on 24-well plates coated with […] OKT3 and 1 μg/ml anti-CD28 (Clone CD28.2, BD Pharmingen, San Jose, Calif.) for 48 to 72 hours. CD19 expression and suicide gene function in both reactivated and non-reactivated cells were measured on day 24 or 25 post transduction.
# In some experiments, cells also were cultured for 3 weeks post transduction and stimulated with 30G-irradiated allogeneic PBMC at a responder:stimulator ratio of 1:1. After 4 days of co-culture, a portion of cells was treated with 10 nM AP20187. Killing was measured by annexin V/7-AAD staining at 24 hours, and the effect of dimerizer on bystander virus-specific T cells was assessed by pentamer analysis on AP20187-treated and untreated cells.
# [2] = system: iCasp9M-transduced EBV-CTLs; experiment: Loss of GFP-expressing iCasp9M-transduced EBV-CTLs after CID (flow cytometry); type: cell-based, human
# [3] = system: differentiated iCasp9-positive MSCs; experiment: Apoptosis of differentiated iCasp9-transduced MSCs after CID (TUNEL, cell density); type: cell-based, human; details: adipocytic differentiation, 50 nM CID, after 24 hours (from 584)
# Protocol: Differentiated MSCs. Transduced MSCs were differentiated as presented above. At the end of the differentiation period, CID was added to the differentiation media at 50 nM. Cells were stained appropriately for the tissue being studied, as presented above, and a contrast stain (methylene azur or methylene blue) was used to evaluate the nuclear and cytoplasmic morphology. In parallel, tissues were processed for terminal deoxynucleotidyl-transferase dUTP nick end labeling (TUNEL) assay as per manufacturer instructions (In Situ Cell Death Detection Kit, Roche Diagnostics, Mannheim, Germany). For each time point, four random fields were photographed at a final magnification of 40× and the images were analyzed with ImageJ software version 1.43o (NIH, Bethesda, Md.). Cell density was calculated as the number of nuclei (DAPI positivity) per unit of surface area (in mm^2). The percentage of apoptotic cells was determined as the ratio of the number of nuclei with positive TUNEL signal (FITC positivity) to the total number of nuclei. Controls were maintained in culture without CID.
# [4] = system: iCasp9-ΔCD19-transduced MSCs; experiment: In vivo killing of iCasp9-transduced MSCs in SCID mice (luminescence, qPCR); design: species or system mouse
# [5] = system: iCasp9M.IRES.GFPhigh-transduced CTLs; experiment: SCID mouse-human xenograft model, elimination of transduced CTLs by CID; type: in vivo; details: single dose of CID (50 μg AP20187 i.p.), vs carrier
# Protocol: Non-obese diabetic severe combined immunodeficient (NOD/SCID) mice, 6 to 8 weeks of age, were irradiated (250 rad) and injected subcutaneously in the right flank with 10×10^6 to 15×10^6 LCLs resuspended in Matrigel (BD Bioscience). Two weeks later mice bearing tumors that were approximately 0.5 cm in diameter were injected into the tail vein with a 1:1 mixture of nontransduced and iCasp9.I.GFPhigh-transduced EBV CTLs (total 15×10^6). At 4 to 6 hours prior and 3 days after CTL infusion, mice were injected intraperitoneally with recombinant hIL-2 (2000 U; Proleukin; Chiron). On day 4, the mice were randomly segregated in 2 groups: 1 group received CID (50 μg AP20187, intraperitoneally) and 1 group received carrier only (16.7% propanediol, 22.5% PEG400, and 1.25% Tween 80, intraperitoneally). […] By FACS analysis, the number of GFP+ cells within the gated CD3^+ population was evaluated. […]
# The function of iCasp9M in vivo is graphically illustrated in FIG. 7. […] On day 3 after CTL administration, mice received either CID (50 μg AP20187; (black diamonds, n=6) or carrier only (black squares, n=5) and on day 6 the presence of human CD3+/GFP+ T cells in the tumors was analyzed. Human CD3+ T cells isolated from the tumors of a control group of mice that received only nontransduced CTLs (15×10^6 CTLs; n=4) were used as a negative control for the analysis of CD3+/GFP+ T cells within the tumors.
# [6] = system: F-Casp9M.I.GFPhigh-transduced T cells; experiment: annexin-V/7-AAD staining of CID-treated transduced CTLs; type: cell-based, human; details: GFPhigh-selected, overnight 10 nM CID
# Protocol: CID (AP20187; ARIAD Pharmaceuticals) at indicated concentrations was added to transfected 293T cells or transduced CTLs. Adherent and nonadherent cells were harvested and washed with annexin binding buffer (BD Pharmingen, San Jose, Calif.). Cells were stained with annexin-V and 7-amino-actinomycin D (7-AAD) for 15 minutes according to the manufacturer's instructions (BD Pharmingen). Within 1 hour after staining, cells were analyzed by flow cytometry using CellQuest software (Becton Dickinson).
# iCasp9-transduced MSCs = experiment: Apoptosis of undifferentiated iCasp9-transduced MSCs after CID (annexin V/7-AAD FACS); type: cell-based, human
# Protocol: Undifferentiated MSCs. The chemical inducer of dimerization (CID) (AP20187; ARIAD Pharmaceuticals, Cambridge, Mass.) was added at 50 nM to iCasp9-transduced MSCs cultures in complete medium. Apoptosis was evaluated 24 hours later by FACS analysis, after cell harvest and staining with annexin V-PE and 7-AAD in annexin V binding buffer (BD Biosciences, San Diego, Calif.). Control iCasp9-transduced MSCs were maintained in culture without exposure to CID.
# [7] = system: Primary T cells from healthy donors
# [8] = 10 nM, 24 hours, day after CD19 selection
molecule,measurement,setting,value
CC[C@H](C(=O)N1CCCC[C@H]1C(=O)O[C@H](CCc1ccc(OC)c(OC)c1)c1cccc(OCC(=O)NCC(CNC(=O)COc2cccc([C@@H](CCc3ccc(OC)c(OC)c3)OC(=O)[C@@H]3CCCCN3C(=O)[C@@H](CC)c3cc(OC)c(OC)c(OC)c3)c2)CN(C)C)c1)c1cc(OC)c(OC)c(OC)c1 [AP20187],Killing efficiency after correction for baseline viability,[1]; [8],about 92.9%±3.8%
same,viable cells after AP20187,[1]; [8],about 5.5%±2.5%
same,killing efficiency,"[1]; OKT3/aCD28-reactivated cells, day 24 or 25",~84.6%±8.0%
same,effect on virus-specific T cells (pentamer analysis),"[1]; allostimulated cells, 10 nM AP20187",spares (and thereby enriches) viral reactive subpopulations
same,killing efficiency,[1]; day 5 post transduction,93.1±3.5%
same,residual viability,"[1]; day 24 post transduction, 10 nM AP20187",19.6±5.6%
same,killing efficiency,"[1]; day 24 post transduction, non-reactivated",63.1±6.2% and ~63.1%±6.2%
same,percentage killing,[1]; large scale (n=3),about 95.4%
same,mean viability with AP20187,[1]; large scale CD19 selection (n=3),about 3.9%
same,viability of non-transduced cells with AP20187,[1]; non-transduced cells (n=6),about 86%±9%
same,Killing,"[1]; reactivated, CD25 negative fraction",78.6±9.1%
same,percentage killing,[1]; small scale (n=5),about 91.4%
same,mean viability with AP20187,[1]; small scale CD19 selection (n=5),about 6.6%
same,apoptosis / elimination of iCasp9-modified T cells after dimerizer,"[1]; summary statement, listed as small-molecule dimerizer",> 90%
same,CID concentration sufficient to obtain the maximal deletion effect,"[2]; F-Casp9M.I.GFPhigh, day 7",1 nM
same,reduction in mean fluorescence intensity of GFP in surviving CTLs,[2]; after CID,70%
same,GFP+ cells eliminated,"[2]; unselected CTLs, single 10-nM dose of CID, 5 donors",91.3%
same,cell density,[3],< 14 cells/mm2
same,proportion of surviving iCasp9-positive cells,"[4]; mouse, in vivo",0.7%
same,killing / depletion of iCasp9-positive MSCs in vivo,[4]; two injections of 50 μg of CID 24 hours apart,> 99%
same,reduction in the number of human CD3+/GFP+ T cells in tumors,[5]; listed as CID,> 99%
same,reduction in the number of human CD3+/GFP+ T cells in tumors,[5]; listed as dimerizer,more than 99%
same,apoptotic (annexin-V+/7-AAD−) phenotype,[6],64%
same,necrotic (annexinV+/7-AAD+) phenotype,[6]; listed as CID,30% and 32%
same,annexin positive non-transduced control MSC (Control/CID),"iCasp9-transduced MSCs; CID 50 nM, 24 hours",15%
same,apoptosis index of iCasp9-negative cells,"iCasp9-transduced MSCs; CID 50 nM, 24 hrs, listed as CID",20±7% and 19%
same,apoptotic death of iCasp9-positive cells,"iCasp9-transduced MSCs; CID 50 nM, within 24 hrs",93±1%
same,apoptotic cells among magnetically immunoselected iCasp9-CD19-positive cells,iCasp9-transduced MSCs; after exposure to CID,More than 95%
B1,AP1903-dependent cytotoxicity / sensitivity in transduced T cells,[7],very subtle effect on inducible caspase function
